Results published in publication PMC7206119, “RIP1 inhibition blocks inflammatory diseases but not tumor growth or metastases” (Cell Death and Differentiation, 2019).

Assays:
Test in all cases: biochemical
Design in all cases: DiscoverX kinase panel, active-site competition binding (KINOMEscan type), percent of control at one concentration
Settings in all cases: competition binding, percent of control
AURKA = AURKA (Homo sapiens, UniProt O14965)
Excerpt: (§1) To investigate the potential therapeutic benefit of inhibiting RIP1, we developed GNE684 or (S)-N-((S)-7-methoxy-1-methyl-2-oxo-2,3,4,5-tetrahydro-1H-pyrido[3,4-b]azepin-3-yl)-5-phenyl-6,7-dihydro-5H-pyrrolo[1,2-b][1,2,4]triazole-2-carboxamide with cross-species potency against RIP1, exquisite kinase selectivity, and favorable pharmacological properties (Fig. 1a–h, S1, Tables S1 and S2, SI file 1). […] (Fig. 1b, S1, and Table S1). […] GNE684 inhibited human RIP1 potently in vitro, and mouse and rat RIP1 with slightly less potency (Fig. 1d). Accordingly, it inhibited TNF-induced necroptosis in human HT-29, mouse L929, or rat H9c2 cells (Fig. 1e). The cellular potency of GNE684 was confirmed in a human whole blood assay using TBZ (TNF, IAP antagonist BV6, and pan-caspase inhibitor zVAD) or LZ (LPS plus zVAD) to trigger necroptosis and the release of IL-1α and IL-1β (Fig. 1f).

NIK = molecular target: T1, NIK (Homo sapiens, UniProt Q99558)
T1 construct: gene MAP3K14
Excerpt: as §1

MARK2 = MARK2 (Homo sapiens, UniProt Q7KZI7)
Excerpt: as §1

PAK1 = PAK1 (Homo sapiens, UniProt Q13153)
Excerpt: as §1

GRK7 = GRK7 (Homo sapiens, UniProt Q8WTQ7)
Excerpt: as §1

[1] = molecular target: T2, JAK3(JH1domain-catalytic) (Homo sapiens, UniProt P52333)
T2 construct: JH1domain-catalytic
Excerpt: as §1

LOK = molecular target: T3, LOK (Homo sapiens, UniProt O94804)
T3 construct: gene STK10
Excerpt: as §1

PIK3CG = PIK3CG (Homo sapiens, UniProt P48736)
Sequence of PIK3CG (P48736 whole entry): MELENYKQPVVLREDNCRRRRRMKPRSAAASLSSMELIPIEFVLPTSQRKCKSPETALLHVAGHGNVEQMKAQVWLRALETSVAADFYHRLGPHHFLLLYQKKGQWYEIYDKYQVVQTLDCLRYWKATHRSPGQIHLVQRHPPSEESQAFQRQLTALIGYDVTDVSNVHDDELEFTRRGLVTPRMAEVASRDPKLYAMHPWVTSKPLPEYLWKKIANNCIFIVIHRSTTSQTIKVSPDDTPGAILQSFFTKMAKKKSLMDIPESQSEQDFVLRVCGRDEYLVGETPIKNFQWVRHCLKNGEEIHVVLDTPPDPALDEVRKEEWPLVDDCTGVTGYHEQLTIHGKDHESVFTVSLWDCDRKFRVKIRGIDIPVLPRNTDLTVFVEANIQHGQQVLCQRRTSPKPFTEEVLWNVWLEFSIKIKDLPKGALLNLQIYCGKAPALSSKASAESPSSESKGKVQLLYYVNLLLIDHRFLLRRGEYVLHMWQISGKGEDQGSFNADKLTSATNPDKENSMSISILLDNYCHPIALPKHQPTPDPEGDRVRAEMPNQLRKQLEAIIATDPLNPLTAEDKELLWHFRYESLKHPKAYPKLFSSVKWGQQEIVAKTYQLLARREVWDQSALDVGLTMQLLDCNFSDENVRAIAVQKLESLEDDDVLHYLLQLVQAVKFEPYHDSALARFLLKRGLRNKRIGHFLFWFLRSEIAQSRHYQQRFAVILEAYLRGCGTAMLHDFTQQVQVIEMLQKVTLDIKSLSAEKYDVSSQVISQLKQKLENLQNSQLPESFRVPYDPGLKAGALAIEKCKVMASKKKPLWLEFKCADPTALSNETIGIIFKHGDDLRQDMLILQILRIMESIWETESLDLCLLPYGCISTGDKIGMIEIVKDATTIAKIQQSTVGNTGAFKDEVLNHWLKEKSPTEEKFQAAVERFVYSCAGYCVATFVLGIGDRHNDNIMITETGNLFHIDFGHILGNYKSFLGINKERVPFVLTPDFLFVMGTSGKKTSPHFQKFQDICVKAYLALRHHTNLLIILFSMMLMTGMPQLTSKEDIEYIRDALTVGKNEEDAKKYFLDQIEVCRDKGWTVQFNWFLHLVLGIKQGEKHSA
Excerpt: as §1

[2] = molecular target: T4, RPS6KA5(Kin.Dom.2-C-terminal) (Homo sapiens, UniProt O75582)
T4 construct: Kin.Dom.2-C-terminal
Excerpt: as §1

AKT1 = AKT1 (Homo sapiens, UniProt P31749)
Excerpt: as §1

ERK2 = molecular target: T5, ERK2 (Homo sapiens, UniProt P28482)
T5 construct: gene MAPK1
Excerpt: as §1

MST4 = molecular target: T6, MST4 (Homo sapiens, UniProt Q9P289)
T6 construct: gene STK26
Excerpt: as §1

CAMK2A = CAMK2A (Homo sapiens, UniProt Q9UQM7)
Sequence of CAMK2A (Q9UQM7 whole entry): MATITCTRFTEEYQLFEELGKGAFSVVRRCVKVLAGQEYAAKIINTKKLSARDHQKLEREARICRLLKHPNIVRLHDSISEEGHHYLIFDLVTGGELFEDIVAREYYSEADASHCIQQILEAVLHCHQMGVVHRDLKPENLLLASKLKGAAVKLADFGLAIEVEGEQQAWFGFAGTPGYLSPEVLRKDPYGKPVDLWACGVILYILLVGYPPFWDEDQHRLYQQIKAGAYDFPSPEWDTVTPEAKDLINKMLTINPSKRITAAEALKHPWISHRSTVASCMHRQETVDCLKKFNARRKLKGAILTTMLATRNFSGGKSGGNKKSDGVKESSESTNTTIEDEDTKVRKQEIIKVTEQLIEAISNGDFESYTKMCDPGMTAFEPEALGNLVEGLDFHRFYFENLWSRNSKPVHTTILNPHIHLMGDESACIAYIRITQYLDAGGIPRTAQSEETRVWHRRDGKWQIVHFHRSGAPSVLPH
Excerpt: as §1

TRKA = molecular target: T7, TRKA (Homo sapiens, UniProt P04629)
T7 construct: gene NTRK1
T7 sequence (P04629 whole entry): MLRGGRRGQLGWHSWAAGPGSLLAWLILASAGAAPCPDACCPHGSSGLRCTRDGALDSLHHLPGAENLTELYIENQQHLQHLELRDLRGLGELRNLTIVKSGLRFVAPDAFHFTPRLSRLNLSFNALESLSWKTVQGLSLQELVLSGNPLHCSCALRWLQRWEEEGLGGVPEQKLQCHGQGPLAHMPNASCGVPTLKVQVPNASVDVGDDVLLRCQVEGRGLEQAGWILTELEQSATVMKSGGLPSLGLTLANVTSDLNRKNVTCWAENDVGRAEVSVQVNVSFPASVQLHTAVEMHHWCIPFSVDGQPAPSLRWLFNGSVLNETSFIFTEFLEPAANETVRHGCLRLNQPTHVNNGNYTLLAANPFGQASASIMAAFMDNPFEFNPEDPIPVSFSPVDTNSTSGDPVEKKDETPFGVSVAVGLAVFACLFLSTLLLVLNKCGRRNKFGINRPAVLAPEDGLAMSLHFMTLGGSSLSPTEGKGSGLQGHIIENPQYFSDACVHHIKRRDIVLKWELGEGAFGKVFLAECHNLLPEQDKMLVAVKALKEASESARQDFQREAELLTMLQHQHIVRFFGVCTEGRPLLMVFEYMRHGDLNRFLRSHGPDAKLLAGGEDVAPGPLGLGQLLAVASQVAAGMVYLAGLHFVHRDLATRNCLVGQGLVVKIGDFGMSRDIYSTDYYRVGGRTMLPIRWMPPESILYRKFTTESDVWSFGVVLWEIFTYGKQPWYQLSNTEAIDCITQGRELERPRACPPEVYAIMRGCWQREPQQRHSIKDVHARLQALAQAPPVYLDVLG
Excerpt: as §1

MET(Y1235D) = MET(Y1235D) (Homo sapiens, UniProt P08581, Y1235D)
Excerpt: as §1

MST1R = MST1R (Homo sapiens, UniProt Q04912)
Excerpt: as §1

MYO3A = MYO3A (Homo sapiens, UniProt Q8NEV4)
Excerpt: as §1

RET = RET (Homo sapiens, UniProt P07949)
Excerpt: as §1

TESK1 = TESK1 (Homo sapiens, UniProt Q15569)
Excerpt: as §1

PIK3CA(H1047L) = PIK3CA(H1047L) (Homo sapiens, UniProt P42336, H1047L)
Sequence of PIK3CA(H1047L) (P42336 whole entry H1047L): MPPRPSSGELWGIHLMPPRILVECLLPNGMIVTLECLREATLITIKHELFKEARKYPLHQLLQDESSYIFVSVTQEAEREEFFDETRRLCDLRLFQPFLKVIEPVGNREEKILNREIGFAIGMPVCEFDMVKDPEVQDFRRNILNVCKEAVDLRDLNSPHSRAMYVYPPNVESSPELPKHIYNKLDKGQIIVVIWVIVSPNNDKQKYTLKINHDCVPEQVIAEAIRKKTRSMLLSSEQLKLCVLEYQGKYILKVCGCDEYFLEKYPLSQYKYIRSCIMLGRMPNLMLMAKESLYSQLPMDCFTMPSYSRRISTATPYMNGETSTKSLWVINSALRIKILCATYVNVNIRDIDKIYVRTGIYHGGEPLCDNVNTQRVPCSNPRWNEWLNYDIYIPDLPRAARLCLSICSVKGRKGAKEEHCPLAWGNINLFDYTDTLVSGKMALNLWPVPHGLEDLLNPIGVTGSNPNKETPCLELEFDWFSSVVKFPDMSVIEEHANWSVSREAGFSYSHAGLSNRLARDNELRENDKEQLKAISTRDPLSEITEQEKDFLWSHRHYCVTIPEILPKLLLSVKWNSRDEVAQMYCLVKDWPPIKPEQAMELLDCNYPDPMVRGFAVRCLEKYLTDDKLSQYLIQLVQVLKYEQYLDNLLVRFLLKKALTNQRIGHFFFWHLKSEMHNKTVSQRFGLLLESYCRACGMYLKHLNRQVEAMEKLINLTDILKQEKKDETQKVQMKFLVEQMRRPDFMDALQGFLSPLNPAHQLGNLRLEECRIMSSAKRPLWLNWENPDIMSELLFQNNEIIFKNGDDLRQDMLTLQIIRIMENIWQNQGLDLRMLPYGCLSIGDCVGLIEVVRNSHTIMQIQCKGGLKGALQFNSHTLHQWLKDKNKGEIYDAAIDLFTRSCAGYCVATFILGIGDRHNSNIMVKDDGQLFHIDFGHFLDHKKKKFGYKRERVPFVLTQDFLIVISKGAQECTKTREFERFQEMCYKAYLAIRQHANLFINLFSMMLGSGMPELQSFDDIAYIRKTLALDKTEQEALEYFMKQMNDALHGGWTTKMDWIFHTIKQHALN
Excerpt: as §1

ROCK2 = ROCK2 (Homo sapiens, UniProt O75116)
Sequence of ROCK2 (O75116 whole entry): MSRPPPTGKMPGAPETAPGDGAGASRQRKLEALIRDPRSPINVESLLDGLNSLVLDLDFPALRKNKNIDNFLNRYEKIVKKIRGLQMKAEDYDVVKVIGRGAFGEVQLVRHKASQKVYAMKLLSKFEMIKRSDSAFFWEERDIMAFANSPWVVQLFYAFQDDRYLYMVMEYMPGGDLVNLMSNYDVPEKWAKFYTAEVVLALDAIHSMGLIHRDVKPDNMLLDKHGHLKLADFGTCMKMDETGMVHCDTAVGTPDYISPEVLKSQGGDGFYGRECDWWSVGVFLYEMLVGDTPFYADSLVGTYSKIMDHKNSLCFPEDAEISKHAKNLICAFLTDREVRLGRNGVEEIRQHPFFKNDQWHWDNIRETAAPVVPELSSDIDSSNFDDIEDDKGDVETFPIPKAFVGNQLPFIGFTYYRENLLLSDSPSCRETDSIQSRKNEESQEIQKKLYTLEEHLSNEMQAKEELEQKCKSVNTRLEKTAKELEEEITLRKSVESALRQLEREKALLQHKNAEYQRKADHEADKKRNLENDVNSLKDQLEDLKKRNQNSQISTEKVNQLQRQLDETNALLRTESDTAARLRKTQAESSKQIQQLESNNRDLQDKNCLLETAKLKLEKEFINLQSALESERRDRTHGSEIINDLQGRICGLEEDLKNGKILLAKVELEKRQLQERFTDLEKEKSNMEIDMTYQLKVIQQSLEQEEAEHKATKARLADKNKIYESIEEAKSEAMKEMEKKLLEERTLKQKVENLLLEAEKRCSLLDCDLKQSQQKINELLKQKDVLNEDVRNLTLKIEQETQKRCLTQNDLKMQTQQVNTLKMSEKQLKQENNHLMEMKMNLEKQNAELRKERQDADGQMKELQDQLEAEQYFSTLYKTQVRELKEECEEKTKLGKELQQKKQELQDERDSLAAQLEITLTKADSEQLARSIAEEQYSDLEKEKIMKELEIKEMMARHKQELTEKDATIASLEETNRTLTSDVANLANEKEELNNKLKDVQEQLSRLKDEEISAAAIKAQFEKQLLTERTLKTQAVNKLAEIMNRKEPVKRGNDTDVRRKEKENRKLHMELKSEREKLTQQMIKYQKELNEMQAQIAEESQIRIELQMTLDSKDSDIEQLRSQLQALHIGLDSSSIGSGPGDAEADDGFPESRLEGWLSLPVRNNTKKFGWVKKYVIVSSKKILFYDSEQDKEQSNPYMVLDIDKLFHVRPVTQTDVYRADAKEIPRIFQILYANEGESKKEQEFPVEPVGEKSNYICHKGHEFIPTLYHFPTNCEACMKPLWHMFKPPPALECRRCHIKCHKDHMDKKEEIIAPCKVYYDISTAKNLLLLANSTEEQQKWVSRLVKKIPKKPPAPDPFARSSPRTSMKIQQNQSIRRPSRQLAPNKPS
Excerpt: as §1

`COc1cc2c(cn1)N(C)C(=O)[C@@H](NC(=O)c1nc3n(n1)[C@H](c1ccccc1)CC3)CC2` [GNE684, (S)-N-((S)-7-methoxy-1-methyl-2-oxo-2,3,4,5-tetrahydro-1H-pyrido[3,4-b]azepin-3-yl)-5-phenyl-6,7-dihydro-5H-pyrrolo[1,2-b][1,2,4]triazole-2-carboxamide] was tested. Which remaining binding at 10 µM (AURKA) did it give?
The remaining binding at 10 µM was 96%.

And the remaining binding at 10 µM (NIK)?
The remaining binding at 10 µM was 100%.

What about the remaining binding at 10 µM (MARK2) of the same molecule?
The remaining binding at 10 µM was 100%.

And the remaining binding at 10 µM (PAK1)?
Its remaining binding at 10 µM is 94%.

What about the remaining binding at 10 µM (GRK7) of the same molecule?
Its remaining binding at 10 µM is 100%.

And the remaining binding at 10 µM [1]?
The remaining binding at 10 µM was 97%.

And the remaining binding at 10 µM (LOK)?
Its remaining binding at 10 µM is 82%.

What about the remaining binding at 10 µM (PIK3CG) of the same molecule?
Its remaining binding at 10 µM is 89%.

And the remaining binding at 10 µM [2]?
Its remaining binding at 10 µM is 100%.

What about the remaining binding at 10 µM (AKT1) of the same molecule?
Its remaining binding at 10 µM is 74%.

And the remaining binding at 10 µM (ERK2)?
The remaining binding at 10 µM was 100%.

What about the remaining binding at 10 µM (MST4) of the same molecule?
Its remaining binding at 10 µM is 100%.

And the remaining binding at 10 µM (CAMK2A)?
The remaining binding at 10 µM was 69%.

What about the remaining binding at 10 µM (TRKA) of the same molecule?
The remaining binding at 10 µM was 87%.

What about the remaining binding at 10 µM (MET(Y1235D)) of the same molecule?
Its remaining binding at 10 µM is 82%.

What about the remaining binding at 10 µM (MST1R) of the same molecule?
The remaining binding at 10 µM was 94%.

And the remaining binding at 10 µM (MYO3A)?
Its remaining binding at 10 µM is 95%.

What about the remaining binding at 10 µM (RET) of the same molecule?
The remaining binding at 10 µM was 98%.

And the remaining binding at 10 µM (TESK1)?
The remaining binding at 10 µM was 94%.

What about the remaining binding at 10 µM (PIK3CA(H1047L)) of the same molecule?
Its remaining binding at 10 µM is 95%.

And the remaining binding at 10 µM (ROCK2)?
The remaining binding at 10 µM was 100%.
